Our source for the IC50 values is US20210094971A1, “HETEROCYCLIC COMPOUNDS” (Hoffmann-La Roche Inc., priority 2019, published 2021).

This experiment addresses T1, MAGL (Homo sapiens, UniProt Q99685).
T1 sequence (Q99685 1-303): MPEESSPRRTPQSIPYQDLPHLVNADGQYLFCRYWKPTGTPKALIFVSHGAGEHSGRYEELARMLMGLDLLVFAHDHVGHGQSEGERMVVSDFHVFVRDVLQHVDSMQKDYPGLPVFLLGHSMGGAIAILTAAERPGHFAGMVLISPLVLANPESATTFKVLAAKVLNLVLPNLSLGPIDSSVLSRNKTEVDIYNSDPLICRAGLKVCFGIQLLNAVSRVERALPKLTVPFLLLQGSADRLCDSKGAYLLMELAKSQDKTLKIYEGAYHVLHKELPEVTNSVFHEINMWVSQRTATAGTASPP
In words: 2-AG assay (MAGL inhibitory activity, hydrolysis of 2-arachidonoylglycerol followed by mass spectrometry). The format is biochemical. Particulars: 50 pM MAGL, 8 μM 2-arachidonoylglycerol, 15 min pre-incubation, 30 min incubation at RT. The method, then:
Compounds were profiled for MAGL inhibitory activity by determining the enzymatic activity by following the hydrolysis of the natural substrate 2-arachidonoylglycerol resulting in arachidonic acid, which can be followed by mass spectrometry. This assay is hereinafter abbreviated “2-AG assay”.
The 2-AG assay was carried out in 384 well assay plates (PP, Greiner Cat# 784201) in a total volume of 20 μL. Compound dilutions were made in 100% DMSO (VWR Chemicals 23500.297) in a polypropylene plate in 3-fold dilution steps to give a final concentration range in the assay from 12.5 μM to 0.8 pM. 0.25 μL compound dilutions (100% DMSO) were added to 9 μL MAGL in assay buffer (50 mM TRIS (GIBCO, 15567-027), 1 mM EDTA (Fluka, 03690-100 ml), 0.01% (v/v) Tween. After shaking, the plate was incubated for 15 min at RT. To start the reaction, 10 μL 2-arachidonoylglycerol in assay buffer was added. The final concentrations in the assay was 50 pM MAGL and 8 μM 2-arachidonoylglyerol. After shaking and 30 min incubation at RT, the reaction was quenched by the addition of 40 μL of acetonitrile containing 4 μM of d8-arachidonic acid. The amount of arachidonic acid was traced by an online SPE system (Agilent Rapidfire) coupled to a triple quadrupole mass spectrometer (Agilent 6460). A C18 SPE cartridge (G9205A) was used in an acetonitrile/water liquid setup. The mass spectrometer was operated in negative electrospray mode following the mass transitions 303.1→259.1 for arachidonic acid and 311.1→267.0 for d8-arachidonic acid. The activity of the compounds was calculated based on the ratio of intensities [arachidonic acid/d8-arachidonic acid].
Regarding `O=C1CO[C@H]2CCN(C(=O)N3C[C@H]4C[C@@H]3C[C@@H]4OCc3cc4c(cn3)CCCC4)C[C@H]2N1` (relative stereo) [Example 9, (4aR,8aS)-6-[rel-(1R,4R,5S)-5-(5,6,7,8-tetrahydroisoquinolin-3-ylmethoxy)-2-azabicyclo[2.2.1]heptane-2-carbonyl]-4,4a,5,7,8,8a-hexahydropyrido[4,3-b][1,4]oxazin-3-one], inhibition was half-maximal at 76 nM (IC50).

`O=C1CO[C@H]2CCN(C(=O)N3C[C@@H]4C[C@H](OCc5ccc(C(F)(F)F)cc5F)[C@H]3C4)C[C@H]2N1` (relative stereo) [Example 18, (4aR,8aS)-6-[rel-(1R,4S,6S)-6-[[2-fluoro-4-(trifluoromethyl)phenyl]methoxy]-2-azabicyclo[2.2.1]heptane-2-carbonyl]-4,4a,5,7,8,8a-hexahydropyrido[4,3-b][1,4]oxazin-3-one]: half-maximal inhibition (IC50) was put at 1050 nM.

The compound `O=C1CO[C@H]2CCN(C(=O)N3C[C@H]4C[C@@H]3[C@H](OCc3ccc(C(F)(F)F)cc3F)C4)C[C@H]2N1` (relative stereo) [Example 19, (4aR,8aS)-6-[rel-(1R,4S,6R)-6-[[2-fluoro-4-(trifluoromethyl)phenyl]methoxy]-2-azabicyclo[2.2.1]heptane-2-carbonyl]-4,4a,5,7,8,8a-hexahydropyrido[4,3-b][1,4]oxazin-3-one] came in with a half-inhibitory concentration (IC50) of 1140 nM.

Compound `O=C1CO[C@H]2CCN(C(=O)N3CC4CC(Oc5ccccc5Cl)CC4C3)C[C@H]2N1` (stereo partly drawn) [Example 1, (4aR,8aS)-6-(5-(2-chlorophenoxy)-3,3a,4,5,6,6a-hexahydro-1H-cyclopenta[c]pyrrole-2-carbonyl)-4,4a,5,7,8,8a-hexahydropyrido[4,3-b][1,4]oxazin-3-one] displayed an IC50 of 8.9 nM.

On to `Cc1ccccc1OC1CC2CN(C(=O)N3CC[C@@H]4OCC(=O)N[C@@H]4C3)CC2C1` (stereo partly drawn) [Example 2, (4aR,8aS)-6-(5-(2-methylphenoxy)-3,3a,4,5,6,6a-hexahydro-1H-cyclopenta[c]pyrrole-2-carbonyl)-4,4a,5,7,8,8a-hexahydropyrido[4,3-b][1,4]oxazin-3-one], for which the midpoint of inhibition, the IC50, lay at 19.8 nM.

Compound `O=C1CO[C@H]2CCN(C(=O)N3CC4CN(S(=O)(=O)c5ccccc5)CC4C3)C[C@H]2N1` (stereo partly drawn) [Example 3, (4aR,8aS)-6-(5-(benzenesulfonyl)-1,3,3a,4,6,6a-hexahydropyrrolo[3,4-c]pyrrole-2-carbonyl)-4,4a,5,7,8,8a-hexahydropyrido[4,3-b][1,4]oxazin-3-one] returned a concentration for half-maximal inhibition (IC50) of 2280 nM.

The compound `O=C1CO[C@H]2CCN(C(=O)N3CC4CN(S(=O)(=O)c5ccc(C(F)(F)F)cc5)CC4C3)C[C@H]2N1` (stereo partly drawn) [Example 4, (4aR,8aS)-6-(5-[4-(trifluoromethyl)phenyl]sulfonyl-1,3,3a,4,6,6a-hexahydropyrrolo[3,4-c]pyrrole-2-carbonyl)-4,4a,5,7,8,8a-hexahydropyrido[4,3-b][1,4]oxazin-3-one] displayed a half-inhibitory concentration (IC50) of 929 nM.

In turn, `O=C1CO[C@H]2CCN(C(=O)N3CC4CN(S(=O)(=O)c5ccc(F)cc5Cl)CC4C3)C[C@H]2N1` (stereo partly drawn) [Example 5, (4aR,8aS)-6-(5-(2-chloro-4-fluoro-phenyl)sulfonyl-1,3,3a,4,6,6a-hexahydropyrrolo[3,4-c]pyrrole-2-carbonyl)-4,4a,5,7,8,8a-hexahydropyrido[4,3-b][1,4]oxazin-3-one] had an IC50 of 676 nM.

`O=C1CO[C@H]2CCN(C(=O)N3C[C@@H]4[C@H](C3)[C@H]4c3ccn(-c4ccc(F)cc4)n3)C[C@H]2N1` [Example 6, (4aR,8aS)-6-[(1R,5S,6r)-6-[1-(4-fluorophenyl)pyrazol-3-yl]-3-azabicyclo[3.1.0]hexane-3-carbonyl]-4,4a,5,7,8,8a-hexahydropyrido[4,3-b][l,4]oxazin-3-one] yielded an IC50 of 261 nM. Compared with the last compound, the IC50 is about 2.6-fold lower.

`O=C1CO[C@H]2CCN(C(=O)N3C[C@@H]4[C@H](C3)[C@H]4c3ccn(-c4ccc(F)c(C(F)(F)F)c4)n3)C[C@H]2N1` [Example 7, (4aR,8aS)-6-[(1R,5S,6r)-6-[1-[4-fluoro-3-(trifluoromethyl)phenyl]pyrazol-3-yl]-3-azabicyclo[3.1.0]hexane-3-carbonyl]-4,4a,5,7,8,8a-hexahydropyrido[4,3-b][1,4]oxazin-3-one] yielded an IC50 of 45.3 nM.

`O=C1CO[C@H]2CCN(C(=O)N3C[C@@H]4[C@H](C3)[C@H]4c3ccn(-c4ccc(F)cc4Cl)n3)C[C@H]2N1` [Example 8, (4aR,8aS)-6-[(1R,5S,6r)-6-[1-(2-chloro-4-fluoro-phenyl)pyrazol-3-yl]-3-azabicyclo[3.1.0]hexane-3-carbonyl]-4,4a,5,7,8,8a-hexahydropyrido[4,3-b][1,4]oxazin-3-one] came in with a 50% inhibitory concentration (IC50) of 112 nM. Compared with the last compound, the IC50 is about 2.5-fold higher.

Regarding `O=C1CO[C@H]2CCN(C(=O)N3C[C@@H]4[C@@H](COc5ccc(F)cc5Cl)[C@@H]4C3)C[C@H]2N1` [Example 12, (4aR,8aS)-6-[(1R,5S,6r)-6-[(2-chloro-4-fluoro-phenoxy)methyl]-3-azabicyclo[3.1.0]hexane-3-carbonyl]-4,4a,5,7,8,8a-hexahydropyrido[4,3-b][1,4]oxazin-3-one], the IC50 was found to be 6.3 nM. This IC50 is about 18-fold lower than that of the compound before.

`O=C1CO[C@H]2CCN(C(=O)N3CC4CCC(C3)C4COc3ccc(F)cc3Cl)C[C@H]2N1` (stereo partly drawn) [Example 13, (4aR,8aS)-6-[8-[(2-chloro-4-fluoro-phenoxy)methyl]-3-azabicyclo[3.2.1]octane-3-carbonyl]-4,4a,5,7,8,8a-hexahydropyrido[4,3-b][1,4]oxazin-3-one] showed an IC50 of 5.1 nM. This IC50 and that of the compound before are within 1.5-fold of each other.

`O=C1CO[C@H]2CCN(C(=O)N3CC4CC(Oc5ccc(F)cc5Cl)CC4C3)C[C@H]2N1` (stereo partly drawn) [Example 14, (4aR,8aS)-6-[5-(2-chloro-4-fluoro-phenoxy)-3,3a,4,5,6,6a-hexahydro-1H-cyclopenta[c]pyrrole-2-carbonyl]-4,4a,5,7,8,8a-hexahydropyrido[4,3-b][1,4]oxazin-3-one] showed an IC50 of 3.5 nM.

Consider `O=C1CO[C@H]2CCN(C(=O)N3CC4CC(OCc5ccc(F)cc5Cl)CC4C3)C[C@H]2N1` (stereo partly drawn) [Example 15, (4aR,8aS)-6-[5-[(2-chloro-4-fluoro-phenyl)methoxy]-3,3a,4,5,6,6a-hexahydro-1H-cyclopenta[c]pyrrole-2-carbonyl]-4,4a,5,7,8,8a-hexahydropyrido[4,3-b][1,4]oxazin-3-one], for which the midpoint of inhibition, the IC50, lay at 11 nM.

`O=C1CO[C@H]2CCN(C(=O)N3CC4CC(OCc5ccc(C(F)(F)F)cc5F)CC4C3)C[C@H]2N1` (stereo partly drawn) [Example 16, (4aR,8aS)-6-[5-[[2-fluoro-4-(trifluoromethyl)phenyl]methoxy]-3,3a,4,5,6,6a-hexahydro-1H-cyclopenta[c]pyrrole-2-carbonyl]-4,4a,5,7,8,8a-hexahydropyrido[4,3-b][1,4]oxazin-3-one] returned an IC50 of 85.9 nM.

Consider `O=C1CO[C@H]2CCN(C(=O)N3CC4CC(Oc5ccc(C(F)(F)F)cc5F)CC4C3)C[C@H]2N1` (stereo partly drawn) [Example 17, (4aR,8aS)-6-[5-[2-fluoro-4-(trifluoromethyl)phenoxy]-3,3a,4,5,6,6a-hexahydro-1H-cyclopenta[c]pyrrole-2-carbonyl]-4,4a,5,7,8,8a-hexahydropyrido[4,3-b][1,4]oxazin-3-one], for which the IC50 worked out at 4.7 nM.

The compound `O=C1CO[C@H]2CCN(C(=O)N3CC4CC(C3)C4OCc3ccc(C(F)(F)F)cc3F)C[C@H]2N1` (stereo partly drawn) [Example 22, (4aR,8aS)-6-[6-[[2-fluoro-4-(trifluoromethyl)phenyl]methoxy]-3-azabicyclo[3.1.1]heptane-3-carbonyl]-4,4a,5,7,8,8a-hexahydropyrido[4,3-b][1,4]oxazin-3-one] yielded a half-inhibitory concentration (IC50) of 217 nM.

In turn, `O=C1CO[C@H]2CCN(C(=O)N3[C@@H]4COC[C@H]3C[C@@H](OCc3ccc(C(F)(F)F)cc3F)C4)C[C@H]2N1` [Example 23, (4aR,8aS)-6-[(1S,5R)-7-[[2-fluoro-4-(trifluoromethyl)phenyl]methoxy]-3-oxa-9-azabicyclo[3.3.1]nonane-9-carbonyl]-4,4a,5,7,8,8a-hexahydropyrido[4,3-b][1,4]oxazin-3-one] had an IC50 of 628 nM.

The compound `O=C1CO[C@H]2CCN(C(=O)N3[C@@H]4CC[C@H]3C[C@H](OCc3ccc(C(F)(F)F)cc3F)C4)C[C@H]2N1` [Example 24, (4aR,8aS)-6-[(1S,5R)-3-[[2-fluoro-4-(trifluoromethyl)phenyl]methoxy]-8-azabicyclo[3.2.1]octane-8-carbonyl]-4,4a,5,7,8,8a-hexahydropyrido[4,3-b][1,4]oxazin-3-one] displayed an IC50 of 1.4 nM.
